# Measured values reported in US8536343B2, “Arylamidine derivative, salt thereof and antifungal agent containing those” (Toyama Chemical Co., Ltd., priority 2005, dated 2013).
# Legend:
# human CYP3A4 = molecular target: T1, human CYP3A4 (Homo sapiens, UniProt P08684); assay: Inhibitory effect on CYP3A4; format: in vitro ADME; conditions: microsome from insect cells expressing human CYP3A4, dibenzylfluorescein, 37° C. 15 min, 72 to 0.0329 μmol/L
# T1 construct: host or cells: insect cells (microsomes)
# Description: Inhibitory effects of the compound of Example 3 and Comparative Compound 1 on human hepatic drug-metabolizing enzyme CYP3A4 were compared. A microsome prepared from insect cells expressing human CYP3A4 was used. Dibenzylfluorescein was used as a substrate. The reaction was conducted in a phosphate buffer solution (100 mmol/L, pH 7.4) including final concentrations of 2.5 nmol/L for the enzyme, 1.0 μmol/L for the substrate, 1.55 mmol/L for nicotinamide adenine dinucleotide phosphate oxidized form (NADP+), 3.3 mmol/L for glucose-6-phosphate, 3.3 mmol/L for magnesium chloride and 0.4 Units/mL for glucose-6-phosphate dehydrogenase (G6PDH). The concentrations of the respective compounds in the reaction solution were prepared in a 3-fold dilution series with a final concentration range of 72 to 0.0329 μmol/L. The reaction solutions were incubated at 37° C. for 15 min. Then the reaction was terminated by a 2 mol/L sodium hydroxide aqueous solution, and the solution was further incubated at 37° C. for 2 hours. The enzyme activity was determined by measuring fluorescence with wavelength of 535 nm using excitation wavelength of 485 nm. The inhibitory effect was expressed as IC50. Clotrimazole was used as a positive control.
# human CYP2D6 = molecular target: T2, human CYP2D6 (Homo sapiens, UniProt P10635); assay: Inhibitory effect on CYP2D6; format: in vitro ADME; conditions: for IC50: microsome from insect cells expressing human CYP2D6, fluorescent substrate, 37° C. 30 min, 72 to 0.0329 μmol/L; for Inhibitory effect on CYP2D6 (in words): microsome from insect cells expressing human CYP2D6, 72 to 0.0329 μmol/L
# T2 construct: host or cells: insect cells (microsomes)
# Description: Inhibitory effects of the compound of Example 3, Comparative Compound 1, Comparative Compound 2 and Comparative Compound 3 on human hepatic drug-metabolizing enzyme CYP2D6 were compared. A microsome prepared from insect cells expressing human CYP2D6 was used, and a substrate was 3-[2-(N,N-diethyl-N-methylammonium)ethyl]-7-methoxy-4-methylcoumarin iodide. The reaction was conducted in a phosphate buffer solution (100 mmol/L, pH 7.4) including final concentrations of 20 nmol/L for the enzyme, 1.5 μmol/L for the substrate, 1.55 mmol/L for nicotinamide adenine dinucleotide phosphate oxidized form (NADP+), 3.3 mmol/L for glucose-6-phosphate, 3.3 mmol/L for magnesium chloride and 0.4 Units/mL for glucose-6-phosphate dehydrogenase (G6PDH). The concentrations of the respective compounds in the reaction solution were prepared in a 3-fold dilution series with a final concentration range of 72 to 0.0329 μmol/L. The reaction solutions were incubated at 37° C. for 30 min. Then the reaction was terminated by a 80% acetonitrile solution (containing tris at a final concentration of 0.1 mol/L), and the enzyme activity was determined by measuring fluorescence with wavelength of 465 nm using excitation wavelength of 400 nm. The inhibitory effect was expressed as IC50. Quinidine was used as a positive control.
# Vero cells = assay: Growth inhibition test on Vero cells (XTT); format: cell-based; conditions: 50 μg/mL, 3 days culture, XTT absorbance versus control
# Description: As Test Compounds, the compounds of Example 1 and Example 2 and Comparative Compound 1 were used.
# The cytotoxicity of the compounds was evaluated using Vero cells. The respective Test Compounds were dissolved in dimethylsulfoxide (DMSO) to prepare solutions at 10 mg/mL. The solutions were diluted with E′MEM with 10% FBS to a final concentration of 50 μg/mL and placed onto a 96-well plate. The cells were suspended in E′MEM with 10% FBS and seeded onto the 96-well plate at 3000 cells/well and then cultured in a CO2 incubator at 37° C. for 3 days. The growth of Vero cells was evaluated by an assay using 2,3-bis-(2-methoxy-4-nitro-5-sulfophenyl)-5-[(phenylamino)carbonyl]-2H-tetrazolium (inner salt) monosodium salt (“XTT”). Namely, an XTT solution containing 1 mg/mL of XTT and 25 μmol/L of phenazine methosulfate (PMS) was added to each well. After incubating in a CO2 incubator for 2 hours, the absorbance at 450 nm (reference at 655 nm) of the respective wells was measured by a microplate reader. The T/C (%) was calculated from the absorbance ratios of the control (without the Compound) and the respective wells.
# human CYP2C19 = molecular target: T3, human CYP2C19 (Homo sapiens, UniProt P33261); assay: Inhibitory effect on CYP2C19; format: in vitro ADME; conditions: microsome from insect cells expressing human CYP2C19, dibenzylfluorescein, 37° C. 30 min, 72 to 0.0329 μmol/L
# T3 construct: host or cells: insect cells (microsomes)
# Description: Inhibitory effects of the compound of Example 3 and Comparative Compound 1 on human hepatic drug-metabolizing enzyme CYP2C19 were compared. A microsome prepared from insect cells expressing human CYP2C19 was used. Dibenzylfluorescein was used as a substrate. The reaction was conducted in a phosphate buffer solution (100 mmol/L, pH 7.4) including final concentrations of 15 nmol/L for the enzyme, 1.0 μmol/L for the substrate, 1.55 mmol/L for nicotinamide adenine dinucleotide phosphate oxidized form (NADP+), 3.3 mmol/L for glucose-6-phosphate, 3.3 mmol/L for magnesium chloride and 0.4 Units/mL for glucose-6-phosphate dehydrogenase (G6PDH). The concentrations of the respective compounds in the reaction solution were prepared in a 3-fold dilution series with a final concentration range of 72 to 0.0329 μmol/L. The reaction solutions were incubated at 37° C. for 30 min. Then the reaction was terminated by a 2 mol/L sodium hydroxide aqueous solution, and the reactant was further incubated at 37° C. for 2 hours. The enzyme activity was determined by measuring fluorescence with wavelength of 535 nm using excitation wavelength of 485 nm. The inhibitory effect was represented as IC50. Tranylcypromine was used as a positive control.
# [1] = system: Aspergillus fumigatus IFM46895; assay: Murine Aspergillus infection model (oral administration); format: in vivo; conditions: cyclophosphamide-compromised male mice; 10 mg/kg orally, 7 times; observed 21 days after infection
# Description: As Test Compounds, the compound of Example 3 and Comparative Compound 1 were used.
# (§1) Spores of Aspergillus fumigatus IFM46895 were cultured on a potato dextrose agar medium at 30° C. for a week. The recovered spores were suspended in a sterile physiological saline solution containing 0.05% Tween 80, which was then diluted to prepare an inoculum solution.
# (§2) Male mice (4 week-old, 5 mice/group) were administered intraperitoneally with 200 mg/kg of cyclophosphamide 4 days before infection and 100 mg/kg on the following day after the infection to obtain transient compromised condition. Each 0.2 mL of the inoculum solution was inoculated into the tail vein of each mouse to induce infection (about 1×10^5 CFU/mouse). The Test Compounds were dissolved in a small amount of 0.1 mol/L hydrochloric acid, and the solution was diluted with a sterile distilled water to obtain a 1 mg/mL solution. The solution was administered orally at the dose of 10 mL/kg body weight of mouse (10 mg/kg body weight). The administrations were conducted once 2 hours after the infection and once daily for the following 6 days, totaling 7 times. To a group receiving no Test Compounds, an equal amount of a sterile physiological saline solution was administered. Viability of the mice was observed and recorded for 21 days after infection.
# [2] = Repeated intravenous dose toxicity study in mice (plasma AST, ALT); format: in vivo; conditions: ICR male mice, i.v. once daily for 3 days (25 mg/kg or 6.25 mg/kg), day 1 after completion; relative to saline control
# Description: As Test Compounds, the compound of Example 3, Comparative Compound 2 and Comparative Compound 3 were used.
# A repeated intravenous dose toxicity study was conducted using ICR strain male mice (6 week-old, 5 mice/group). The administration solutions were prepared by adding 3-fold molar amount of hydrochloric acid to the respective Test Compounds, and further adding a sterile physiological saline solution. The compounds of Example 3 and Comparative Compound 2, respectively at 25 mg/kg, and Comparative Compound 1 at 6.25 mg/kg were administered into the tail vein once daily for 3 days. To the control group, a sterile physiological saline solution was administered.
# On day 1 after the completion of the administration, each mouse was etherized. Blood samples were taken from the abdominal vein using an injection syringe containing heparin as an anticoagulant (Novo-Heparin 1,000 units for injection, Aventis Pharma Ltd.), and the samples were centrifuged (3,300 rpm, 4° C., 10 min; Kubota Model 5900) to obtain the plasma. The blood biochemical tests with respect to aspartate aminotransferase (AST) and alanine aminotransferase (ALT) for the samples were conducted according to the JSCC consensus measuring method. The values for the Test Compounds and Comparative Compounds were calculated based on the values for the control (administration of a sterile physiological saline solution) as 100.
# [3] = Acute toxicity study in mice (intravenous administration); format: in vivo; conditions: male mice, 50 mg/kg single intravenous dose
# Description: The compound of Example 3 was dissolved in a small amount of 0.1 mol/L hydrochloric acid, and the solution was diluted with a sterile physiological saline solution to obtain a 5 mg/mL solution. The Test Compound solution was administered intravenously to male mice (4 week-old, 2 mice/group) at 10 mL/kg (50 mg/kg body weight) and the mice were observed until day 2 after administration.
# [4] = system: Aspergillus fumigatus IFM46895; assay: Murine Aspergillus infection model (subcutaneous administration); format: in vivo; conditions: cyclophosphamide-compromised male mice; 0.3 mg/kg subcutaneously, 7 times; observed 21 days after infection
# Description: (§3) As a Test Compound, the compound of Example 3 was used.
# as §1
# as §2, with “Test Compound was” for “Test Compounds were”, “sterile physiological saline solution” for “sterile distilled water”, “a 0.03” for “a 1”, “administered subcutaneously” for “administered orally”, “mouse (0.3” for “mouse (10”, “Test Compound,” for “Test Compounds,”
# [5] = Acute toxicity study in mice (oral administration); format: in vivo; conditions: male mice, 1000 mg/kg single oral dose
# Description: A 100 mg/mL suspension of the compound of Example 3 was prepared with 0.1 mol/L hydrochloric acid. The Test Compound solution was orally administered to male mice (6 week-old, 2 mice/group) at 10 mL/kg (1000 mg/kg body weight) and the mice were observed until day 2 after administration.
# [6] = system: Candida albicans TIMM 1623; assay: Murine Candida infection model (subcutaneous administration); format: in vivo; conditions: cyclophosphamide-compromised male mice; 0.1 mg/kg subcutaneously, 4 times; observed 21 days after infection
# Description: as §3
# Male mice (4 week-old, 5 mice/group) were administered intraperitoneally with 200 mg/kg of cyclophosphamide 4 days before infection and 100 mg/kg on the following day after the infection to obtain transient compromised condition. Candida albicans TIMM 1623 cultured on SDA at 35° C. was suspended in a sterile physiological saline solution to prepare a suspension at 1.5×10^5 cells/mL. Each 0.2 mL of the solution was inoculated into the tail vein of each mouse to induce infection (about 3×10^4 CFU/mouse). The Test Compound was dissolved in a small amount of 0.1 mol/L hydrochloric acid, and the solution was diluted with a sterile physiological saline solution to obtain a 0.01 mg/mL solution. The solution was administered subcutaneously at the dose of 10 mL/kg body weight of mouse (0.1 mg/kg body weight). The administrations were conducted once 2 hours after the infection and once daily for the following consecutive 3 days, totaling 4 times. To a group receiving no Test Compound, an equal amount of a sterile physiological saline solution was administered. Viability of the mice was observed and recorded for 21 days after infection.
# T2 sequence (P10635 whole entry): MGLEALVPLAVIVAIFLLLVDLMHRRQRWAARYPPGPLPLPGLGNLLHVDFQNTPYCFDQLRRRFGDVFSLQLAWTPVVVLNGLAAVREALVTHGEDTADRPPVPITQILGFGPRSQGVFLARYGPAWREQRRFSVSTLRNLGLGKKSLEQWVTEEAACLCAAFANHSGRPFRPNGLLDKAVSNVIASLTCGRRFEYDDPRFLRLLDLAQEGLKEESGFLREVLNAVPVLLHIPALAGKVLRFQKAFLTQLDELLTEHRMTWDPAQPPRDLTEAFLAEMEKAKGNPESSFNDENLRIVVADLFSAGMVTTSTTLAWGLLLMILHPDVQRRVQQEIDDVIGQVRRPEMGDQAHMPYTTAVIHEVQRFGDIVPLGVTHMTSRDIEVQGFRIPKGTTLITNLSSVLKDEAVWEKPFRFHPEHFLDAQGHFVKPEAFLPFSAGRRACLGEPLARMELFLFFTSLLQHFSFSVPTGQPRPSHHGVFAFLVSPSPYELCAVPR
# T3 sequence (P33261 whole entry): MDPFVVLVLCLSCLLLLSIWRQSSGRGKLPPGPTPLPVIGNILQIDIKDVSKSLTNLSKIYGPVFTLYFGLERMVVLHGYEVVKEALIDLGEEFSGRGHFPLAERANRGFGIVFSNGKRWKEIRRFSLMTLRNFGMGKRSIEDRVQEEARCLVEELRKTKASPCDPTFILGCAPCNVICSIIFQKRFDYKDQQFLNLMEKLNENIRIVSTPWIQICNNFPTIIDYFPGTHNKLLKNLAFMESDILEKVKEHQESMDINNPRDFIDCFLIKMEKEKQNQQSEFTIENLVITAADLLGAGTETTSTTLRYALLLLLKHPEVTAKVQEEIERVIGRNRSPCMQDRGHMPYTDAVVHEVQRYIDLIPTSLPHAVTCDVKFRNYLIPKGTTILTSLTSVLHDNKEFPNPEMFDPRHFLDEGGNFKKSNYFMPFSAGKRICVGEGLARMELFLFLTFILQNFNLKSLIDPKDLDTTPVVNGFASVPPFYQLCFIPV
# T1 sequence (P08684 whole entry): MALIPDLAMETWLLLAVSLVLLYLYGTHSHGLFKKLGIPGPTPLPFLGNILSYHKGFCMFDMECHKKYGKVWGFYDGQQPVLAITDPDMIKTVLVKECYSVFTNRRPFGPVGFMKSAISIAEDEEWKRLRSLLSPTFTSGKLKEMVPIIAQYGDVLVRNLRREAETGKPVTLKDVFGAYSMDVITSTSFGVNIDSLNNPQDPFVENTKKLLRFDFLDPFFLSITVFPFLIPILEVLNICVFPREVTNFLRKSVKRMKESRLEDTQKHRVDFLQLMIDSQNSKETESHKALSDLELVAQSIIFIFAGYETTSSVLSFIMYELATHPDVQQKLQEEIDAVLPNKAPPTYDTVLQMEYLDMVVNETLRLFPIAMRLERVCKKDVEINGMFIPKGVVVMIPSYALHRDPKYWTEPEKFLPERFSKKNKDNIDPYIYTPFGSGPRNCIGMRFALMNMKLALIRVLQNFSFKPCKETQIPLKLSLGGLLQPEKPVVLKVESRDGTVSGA
smiles,measurement,setting,value
"N/C(=N\C(=O)OCc1ccccc1)c1ccc(OCCCN2CCN(CCCOc3ccc(/C(N)=N/C(=O)OCc4ccccc4)cc3)CC2)cc1 [Comparative Compound 1, reference compound]",IC50,human CYP3A4,4.73 µM
same,IC50,human CYP2D6,0.68 µM
same,Cytotoxicity T/C (%),Vero cells,1%
same,IC50,human CYP2C19,4.36 µM
same,mice survived,[1],20%
CCOC(=O)/N=C(\N)c1ccc(OCCCC2CCN(CCCOc3ccc(/C(N)=N/C(=O)OCC)cc3)CC2)cc1 [Comparative Compound 2],Inhibitory effect on CYP2D6 (in words),human CYP2D6,inhibited human CYP2D6
same,ALT (alanine aminotransferase) in plasma,[2],increases
same,AST (aspartate aminotransferase) in plasma,[2],increases
CCCCCOC(=O)/N=C(\N)c1ccc(OCCCN2CCC(CCCOc3ccc(C(N)NC(=O)OCCCCC)cc3)CC2)cc1 (centres unmarked) [Comparative Compound 3],Inhibitory effect on CYP2D6 (in words),human CYP2D6,inhibited human CYP2D6
same,ALT (alanine aminotransferase) in plasma,[2],increases
same,AST (aspartate aminotransferase) in plasma,[2],increases
"CCCOC(=O)/N=C(\N)c1ccc(OCCCC2CCN(CCCOc3ccc(/C(N)=N/C(=O)OCCC)cc3)CC2)cc1 [Example 1, 4-{3-[4-(3-{4-[amino(propoxycarbonylimino)methyl]phenoxy}propyl)-1-piperidinyl]propoxy}-N′-(propoxycarbonyl)benzamidine]",Cytotoxicity T/C (%),Vero cells,100%
"CC(C)OC(=O)/N=C(\N)c1ccc(OCCCC2CCN(CCCOc3ccc(/C(N)=N/C(=O)OC(C)C)cc3)CC2)cc1 [Example 2, 4-{3-[4-(3-{4-[amino(isopropoxycarbonylimino)methyl]phenoxy}propyl)-1-piperidinyl]propoxy}-N′-(isopropoxycarbonyl)benzamidine]",Cytotoxicity T/C (%),Vero cells,100%
"CCCCOC(=O)N=C(N)c1ccc(OCCCC2CCN(CCCOc3ccc(C(N)=NC(=O)OCCCC)cc3)CC2)cc1 [Example 3, 4-{3-[4-(3-{4-[amino(butoxycarbonylimino)methyl]phenoxy}propyl)-1-piperidinyl]propoxy}-N′-(butoxycarbonyl)benzamidine]",IC50,human CYP3A4,45.4 µM
same,IC50,human CYP2D6,> 72 µM
same,survival until day 2 after administration,[3],all mice survived
same,mice survived,[4],60%
same,IC50,human CYP2C19,> 72 µM
same,mice survived,[1],80%
same,survival until day 2 after administration,[5],all mice survived
same,mice survived,[6],80%
same,ALT (alanine aminotransferase) in plasma,[2],No abnormality
same,AST (aspartate aminotransferase) in plasma,[2],No abnormality
